Experimental data taken from publication PMC11843613, “Further Optimization of the mGlu1 PAM VU6024578/BI02982816: Discovery and Characterization of VU6033685” (ACS Chemical Neuroscience, 2025).
Where two headings read alike, the source gives them in different places.

Legend:
[1] = molecular target: mouse mGlu1 (Mus musculus, UniProt P97772); test: mGlu1 PAM functional assay (mouse); format: cell-based
[2] = Dose escalation PO PK study in mice; format: in vivo, mouse
[3] = Rat tolerability in NOR and PO PK studies
[4] = Three-day dose escalation toxicology study in mice; format: in vivo, mouse; settings: for AUC at 3 day: in vivo
[5] = Kinetic solubility; format: physicochemical; settings: kinetic from dmso stock
[6] = Predicted hepatic clearance (c); format: in vitro ADME, c (presumably cynomolgus)
Description: (§1) at half log concentrations in DMSO were further diluted in assay buffer. The compounds or DMSO vehicle were added to cells and incubated for 2.5 min and an EC20 concentration of glutamate was added and incubated for 1 min. An ECmax concentration of glutamate was also added to cells that were incubated with DMSO vehicle to accurately calculate the EC20 calcium response. Data were normalized by subtracting the basal florescent peak before EC20 agonist addition from the maximal peak elicited by EC20 agonist and PAMs. Using GraphPad Prism 5.0, the concentration response curves were generated and the potencies of the mGlu1 PAMs were determined.
(§2) Plasma protein binding: The protein binding of each compound was determined in plasma via equilibrium dialysis employing RED Plates (ThermoFisher Scientific, Rochester, NY). Plasma was added to the 96 well plate containing test compound and mixed thoroughly for a final concentration of 5 µM. […]
(§3) Each compound was assayed in triplicate within the same 96-well plate. Fraction unbound was determined using the following equation […]
(§4) After a 5 min preincubation, the reaction was initiated by addition of NADPH (1 mM). […] The in vitro half-life (T 1/2, min, Eq. 1), intrinsic clearance (CLint, mL/min/kg, Eq. 2) and subsequent predicted hepatic clearance (CLhep, mL/min/kg, Eq. 3) was determined […]

[7] = molecular target: dog mGlu1 (Canis lupus familiaris, UniProt A0A8I3NTE8); test: mGlu1 PAM functional assay (dog); format: cell-based
[8] = Predicted hepatic clearance (dog); format: in vitro ADME
Description: as §1, §2, §3, §4

[9] = test system: h and r mGlu2-4,6-8; test: mGlu subtype selectivity; format: cell-based, human, rat; settings: Table 1

Sequence of dog mGlu1 (A0A8I3NTE8 30-1195): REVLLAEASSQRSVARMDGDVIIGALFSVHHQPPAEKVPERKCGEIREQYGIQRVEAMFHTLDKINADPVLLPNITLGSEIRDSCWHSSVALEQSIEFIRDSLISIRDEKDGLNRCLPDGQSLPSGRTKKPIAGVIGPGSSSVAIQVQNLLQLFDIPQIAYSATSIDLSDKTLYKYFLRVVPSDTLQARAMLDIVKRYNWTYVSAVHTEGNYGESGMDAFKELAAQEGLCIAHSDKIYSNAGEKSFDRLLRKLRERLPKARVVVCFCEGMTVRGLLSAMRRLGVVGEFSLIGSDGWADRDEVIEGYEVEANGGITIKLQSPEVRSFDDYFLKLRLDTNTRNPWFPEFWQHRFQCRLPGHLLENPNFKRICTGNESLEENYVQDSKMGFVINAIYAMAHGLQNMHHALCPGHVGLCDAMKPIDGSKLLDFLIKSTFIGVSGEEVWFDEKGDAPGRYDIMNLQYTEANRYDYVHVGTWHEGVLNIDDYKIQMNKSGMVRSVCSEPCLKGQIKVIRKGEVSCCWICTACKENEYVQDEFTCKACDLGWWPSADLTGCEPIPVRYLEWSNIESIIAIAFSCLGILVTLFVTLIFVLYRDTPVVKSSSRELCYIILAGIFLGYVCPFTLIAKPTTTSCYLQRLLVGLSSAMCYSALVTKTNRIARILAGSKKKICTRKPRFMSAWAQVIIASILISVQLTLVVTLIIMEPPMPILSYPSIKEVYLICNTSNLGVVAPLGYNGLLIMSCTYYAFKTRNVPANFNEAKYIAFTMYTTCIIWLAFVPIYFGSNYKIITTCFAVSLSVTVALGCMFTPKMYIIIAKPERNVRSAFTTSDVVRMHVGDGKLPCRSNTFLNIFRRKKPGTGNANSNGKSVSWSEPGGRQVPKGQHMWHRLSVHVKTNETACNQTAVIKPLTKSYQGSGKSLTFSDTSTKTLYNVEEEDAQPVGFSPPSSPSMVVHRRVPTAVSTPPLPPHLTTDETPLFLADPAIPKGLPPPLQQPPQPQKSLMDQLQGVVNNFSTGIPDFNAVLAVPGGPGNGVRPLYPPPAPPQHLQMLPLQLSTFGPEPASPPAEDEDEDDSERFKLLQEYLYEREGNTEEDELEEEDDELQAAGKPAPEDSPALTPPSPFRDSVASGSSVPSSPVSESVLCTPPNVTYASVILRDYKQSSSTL
Sequence of mouse mGlu1 (P97772 19-1199 limits assumed): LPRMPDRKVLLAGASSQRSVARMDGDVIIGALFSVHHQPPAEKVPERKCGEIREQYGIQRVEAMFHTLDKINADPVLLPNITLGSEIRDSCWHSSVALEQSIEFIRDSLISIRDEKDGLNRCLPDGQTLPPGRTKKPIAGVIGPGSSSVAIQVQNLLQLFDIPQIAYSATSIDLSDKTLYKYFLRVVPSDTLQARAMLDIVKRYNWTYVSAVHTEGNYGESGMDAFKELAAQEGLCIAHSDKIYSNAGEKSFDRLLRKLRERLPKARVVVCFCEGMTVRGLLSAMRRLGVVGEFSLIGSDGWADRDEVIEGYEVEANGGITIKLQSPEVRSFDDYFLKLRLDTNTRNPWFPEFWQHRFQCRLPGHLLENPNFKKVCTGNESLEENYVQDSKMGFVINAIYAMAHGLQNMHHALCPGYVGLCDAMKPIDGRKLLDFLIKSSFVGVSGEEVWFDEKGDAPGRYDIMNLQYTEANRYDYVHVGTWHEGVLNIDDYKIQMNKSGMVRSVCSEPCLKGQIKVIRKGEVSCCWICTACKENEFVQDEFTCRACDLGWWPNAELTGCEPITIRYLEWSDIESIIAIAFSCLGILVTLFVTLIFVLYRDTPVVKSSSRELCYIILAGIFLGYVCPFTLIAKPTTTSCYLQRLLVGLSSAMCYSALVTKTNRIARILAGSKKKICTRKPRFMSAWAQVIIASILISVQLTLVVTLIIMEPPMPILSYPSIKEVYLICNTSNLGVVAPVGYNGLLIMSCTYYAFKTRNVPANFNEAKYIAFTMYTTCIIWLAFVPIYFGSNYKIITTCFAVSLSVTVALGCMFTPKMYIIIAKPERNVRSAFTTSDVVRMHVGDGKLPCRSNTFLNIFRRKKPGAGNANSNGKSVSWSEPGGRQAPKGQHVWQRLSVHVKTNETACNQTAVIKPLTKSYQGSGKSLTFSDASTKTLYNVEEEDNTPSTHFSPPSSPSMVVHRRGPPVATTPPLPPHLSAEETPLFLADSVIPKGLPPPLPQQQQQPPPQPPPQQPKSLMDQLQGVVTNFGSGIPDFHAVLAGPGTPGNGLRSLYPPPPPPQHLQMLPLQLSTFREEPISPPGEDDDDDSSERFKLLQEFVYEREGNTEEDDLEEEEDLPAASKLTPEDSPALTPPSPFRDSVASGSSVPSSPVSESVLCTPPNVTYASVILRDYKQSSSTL

Cc1nc(C2CC2)ccc1CNC(=O)c1cc(-n2cccn2)ccc1Cl [compound 8]
EC50 [1]: 52 nM | mouse mGlu1 Glu Max [1]: 102% | observations at >24-fold EC50 free brain ([2]; mouse PO): without any observed AEs | free brain concentration as fold of mouse EC50 at 500 mg/kg ([2]; mouse PO 500 mg/kg): ~90 fold | observations at 500 mg/kg ([2]; mouse PO 500 mg/kg): all animals displayed uncoordinated movements and were cold to the touch | free brain concentration reached without AEs ([2]; mouse PO dose escalation): ~1250 nM | free brain concentration as fold of mouse EC50 reached without AEs ([2]; mouse PO dose escalation (50, 150, 500 mg/kg)): > 24 fold | adverse events at 6.2-fold rat EC50 free in brain ([3]; rat PO): piloerection, slow movement, and reaction to stimuli | duration of adverse events postdose ([3]; rat PO): ~2 h | free brain concentration (fold rat EC50) that resulted in AEs ([3]; rat PO PK studies): 6.2 fold | free brain concentration that resulted in AEs ([3]; rat PO PK studies): 664 nM | AUC at 3 day ([4]; mouse, three-day, 50 mg/kg, read-out: AUCss at 50 mg/kg): 5.5 µM·h | AUC at 3 day ([4]; mouse, three-day, 200 mg/kg, read-out: AUCss at 200 mg/kg): 69.9 µM·h | AUC at 3 day ([4]; mouse, three-day, high-dose group (printed 500 mg/kg), read-out: AUCss in high-dose group): 208 µM·h | maximum tolerated dose (MTD) ([4]; mouse three-day study): not reached | findings at 50 mg/kg ([4]; mouse, three-day, 50 mg/kg): no test-item-related findings | findings at 200 mg/kg ([4]; mouse, three-day, 200 mg/kg): some of the mice showed signs of weight loss, decreased motor activity, and swaying gait | findings in high-dose group ([4]; mouse, three-day, high-dose group (printed 500 mg/kg)): several mice displayed weight loss, decreased motor activity, and swaying gait | solubility kinetic ([5]; pH 2.2, aqueous buffer, read-out: Kinetic solubility pH 2.2): > 100 µM | solubility kinetic ([5]; pH 6.8, aqueous buffer, read-out: Kinetic solubility pH 6.8): < 1 µM | Predicted CLhep (c) [6]: 33.2 mL/min/kg | EC50 [7]: 93 nM | Emax ([7]; read-out: dog mGlu1 Glu Max): 79% | Predicted CLhep (d) [8]: 15.1 mL/min/kg | EC50 [9]: > 10000 nM
